Common to all, as to type: functional, cell-based
Common to all, as to details: Homo sapiens

The subject of one assay is SK-OV-3. The experiment in a line: In vitro cytotoxic activity against SK-OV-3 (ovarian carcinoma) cell lines by using SRB assay.
A further assay concerns SF-295. The experiment in a line: In vitro cytotoxic activity against SF-295 (CNS carcinoma) cell lines by using SRB assay. Background: In SRB staining, fixed cells bind dye roughly in proportion to their protein.
Another assay concerns HCT-15. Nature of the assay: In vitro cytotoxic activity against HCT15 (colon cancer) cell lines by using SRB assay.
A further assay has as its system HOP-62. The experiment in a line: In vitro cytotoxic activity against HOP62 (lung cancer) cell lines by using SRB assay.

The structures appear in SMILES notation.

With `O=C1c2cccnc2C(=O)c2ncc(CBr)cc21`, the IC50 was 300 nM in the assay on SK-OV-3, 500 nM in the assay on SF-295, 400 nM in the assay with HCT-15 and 55 nM with HOP-62.

In the case of `Cc1cnc2c(c1)C(=O)c1cccnc1C2=O`, the IC50 with SK-OV-3 was found to be 40 nM; in the assay with SF-295, 250 nM; with HCT-15, 350 nM; with HOP-62 it was 15 nM.

Consider `CC(C)NC(=O)OCc1cnc2c(c1)C(=O)c1cccnc1C2=O`, for which the IC50 was 20 nM in the assay with SK-OV-3, 100 nM with SF-295, 20 nM in the assay with HCT-15 and 6 nM with HOP-62.

On to `COc1cccc2c1C(=O)c1c(O)c3c(c(O)c1C2=O)C[C@@](O)(C(=O)CO)C[C@@H]3O[C@H]1C[C@H](N)[C@H](O)[C@H](C)O1` [DOXORUBICIN], for which the IC50 in the assay on SK-OV-3 amounted to 20 nM; in the assay on SF-295, 35 nM; in the assay on HCT-15, 100 nM; with HOP-62, 4 nM.

As to `O=C1c2cccnc2C(=O)c2ncc(CO)cc21`, the IC50 came out at 200 nM with SK-OV-3, 300 nM in the assay on SF-295, 400 nM with HCT-15 and 100 nM in the assay with HOP-62.

One may read the IC50 as the concentration at which inhibition is half-maximal.

(Values after ChEMBL document CHEMBL1130647, “Synthesis and in vitro cytotoxicity of 3-substituted-1,8-diazaanthraquinones produced by Lewis-acid catalyzed hetero Diels-Alder reaction” (Bioorg Med Chem Lett, 1998).)
